Laboratory results from publication PMC5218480 (PLoS ONE, 2017).

Tested on: MV-4-11 cells
Assay: Gene expression microarray analysis (Affymetrix PrimeView) and GSEA
Assay type: cell-based, human
Set-up: RFU PODN (11730768_x_at) / Fold change /veh PODN (11730768_x_at) / RFU LINC00158 (11744669_a_at) / Fold change /veh LINC00158 (11744669_a_at) / RFU DUSP10 (11751237_a_at) / Fold change /veh DUSP10 (11751237_a_at) / RFU ID3 (11757404_x_at) / Fold change /veh ID3 (11757404_x_at) / RFU PLEKHG5 (11737974_s_at) / Fold change /veh PLEKHG5 (11737974_s_at) / RFU LRRC4B (11730491_at) / Fold change /veh LRRC4B (11730491_at) / RFU GIMAP4 (11747438_a_at) / Fold change /veh GIMAP4 (11747438_a_at) / RFU KRT8 (11758183_x_at) / Fold change /veh KRT8 (11758183_x_at) / RFU CNN1 (11734310_a_at) / Fold change /veh CNN1 (11734310_a_at) / RFU VPS37D (11726825_at) / Fold change /veh VPS37D (11726825_at) / RFU C10orf10 (11716522_x_at) / Fold change /veh C10orf10 (11716522_x_at) / RFU KIR2DL2 /// KIR2DL4 /// KIR2DL5A /// KIR2DL5B /// KIR2DS1 /// KIR2DS2 /// KIR2DS3 /// KIR2DS4 /// KIR3DL3 /// KIR3DL3 /// KIR3DS1 (11738374_at) / Fold change /veh KIR2DL2 /// KIR2DL4 /// KIR2DL5A /// KIR2DL5B /// KIR2DS1 /// KIR2DS2 /// KIR2DS3 /// KIR2DS4 /// KIR3DL3 /// KIR3DL3 /// KIR3DS1 (11738374_at) / RFU C1QL1 (11718748_at) / Fold change /veh C1QL1 (11718748_at) / RFU TMPRSS4 (11747572_a_at) / Fold change /veh TMPRSS4 (11747572_a_at) / RFU HAMP (11756126_x_at) / Fold change /veh HAMP (11756126_x_at) / RFU RNFT2 (11725882_a_at) / Fold change /veh RNFT2 (11725882_a_at) / RFU NR4A2 (11747474_a_at) / Fold change /veh NR4A2 (11747474_a_at) / RFU ABCC12 (11746883_a_at) / Fold change /veh ABCC12 (11746883_a_at) / RFU TMEM136 (11760407_x_at) / Fold change /veh TMEM136 (11760407_x_at) / RFU CLDN22 /// WWC2 (11732394_at) / Fold change /veh CLDN22 /// WWC2 (11732394_at) / RFU HLA-DPB1 (11760878_x_at) / Fold change /veh HLA-DPB1 (11760878_x_at) / RFU SPINT1 (11716480_a_at) / Fold change /veh SPINT1 (11716480_a_at) / RFU GAP43 (11754022_s_at) / Fold change /veh GAP43 (11754022_s_at) / RFU A4GNT (11735810_at) / Fold change /veh A4GNT (11735810_at) / RFU PRB3 (11715151_x_at) / Fold change /veh PRB3 (11715151_x_at) / RFU TUBB4B (11761932_at) / Fold change /veh TUBB4B (11761932_at) / RFU CAPN14 (11732068_a_at) / Fold change /veh CAPN14 (11732068_a_at) / RFU TMCC2 (11721928_a_at) / Fold change /veh TMCC2 (11721928_a_at) / RFU IRGQ (11745062_a_at) / Fold change /veh IRGQ (11745062_a_at) / RFU FAM174B (11720279_a_at) / Fold change /veh FAM174B (11720279_a_at) / RFU TMPRSS4 (11748680_a_at) / Fold change /veh TMPRSS4 (11748680_a_at) / RFU FAM212B (11763350_a_at) / Fold change /veh FAM212B (11763350_a_at) / RFU PLEKHG5 (11743358_a_at) / Fold change /veh PLEKHG5 (11743358_a_at) / RFU ZSCAN30 (11745921_a_at) / Fold change /veh ZSCAN30 (11745921_a_at) / RFU CMKLR1 (11741424_a_at) / Fold change /veh CMKLR1 (11741424_a_at) / RFU LOC101060620 /// MAPK8IP1 (11723275_at) / Fold change /veh LOC101060620 /// MAPK8IP1 (11723275_at) / RFU SPTSSB (11747773_x_at) / Fold change /veh SPTSSB (11747773_x_at) / RFU PRSS12 (11739890_at) / Fold change /veh PRSS12 (11739890_at) / RFU BIN1 (11741810_x_at) / Fold change /veh BIN1 (11741810_x_at) / RFU WNT11 (11732464_a_at) / Fold change /veh WNT11 (11732464_a_at) / RFU C10orf10 (11716521_a_at) / Fold change /veh C10orf10 (11716521_a_at) / RFU C5orf56 (11738089_at) / Fold change /veh C5orf56 (11738089_at) / RFU CYB561 (11721691_x_at) / Fold change /veh CYB561 (11721691_x_at) / RFU ANKRD19P (11752326_a_at) / Fold change /veh ANKRD19P (11752326_a_at) / RFU OR2T12 /// OR2T33 /// OR2T8 (11738714_s_at) / Fold change /veh OR2T12 /// OR2T33 /// OR2T8 (11738714_s_at) / RFU VCAN (11748164_a_at) / Fold change /veh VCAN (11748164_a_at) / RFU JSRP1 (11732532_at) / Fold change /veh JSRP1 (11732532_at) / RFU KRTAP10-11 (11738290_x_at) / Fold change /veh KRTAP10-11 (11738290_x_at) / RFU MYO3A (11730013_a_at) / Fold change /veh MYO3A (11730013_a_at) / RFU EBF3 (11725865_a_at) / Fold change /veh EBF3 (11725865_a_at) / RFU CAMK2N1 (11719241_x_at) / Fold change /veh CAMK2N1 (11719241_x_at) / RFU C5orf56 (11738088_a_at) / Fold change /veh C5orf56 (11738088_a_at) / RFU OLFML3 (11715873_a_at) / Fold change /veh OLFML3 (11715873_a_at) / RFU LOC100653217 /// NTM (11731650_a_at) / Fold change /veh LOC100653217 /// NTM (11731650_a_at) / RFU MAPK11 (11762145_a_at) / Fold change /veh MAPK11 (11762145_a_at) / RFU FIZ1 (11724087_x_at) / Fold change /veh FIZ1 (11724087_x_at) / RFU OASL (11726364_x_at) / Fold change /veh OASL (11726364_x_at) / RFU SOX15 (11748057_x_at) / Fold change /veh SOX15 (11748057_x_at) / RFU CD79A (11719716_a_at) / Fold change /veh CD79A (11719716_a_at) / RFU HIST1H1D (11736915_at) / Fold change /veh HIST1H1D (11736915_at) / RFU CASKIN2 (11723855_a_at) / Fold change /veh CASKIN2 (11723855_a_at) / RFU LOC730098 (11760151_x_at) / Fold change /veh LOC730098 (11760151_x_at) / RFU OR4N2 (11742367_at) / Fold change /veh OR4N2 (11742367_at) / RFU PRRT2 (11749266_a_at) / Fold change /veh PRRT2 (11749266_a_at) / RFU SNX32 (11753110_a_at) / Fold change /veh SNX32 (11753110_a_at) / RFU CDHR5 (11726645_a_at) / Fold change /veh CDHR5 (11726645_a_at) / RFU RCAN1 (11760418_a_at) / Fold change /veh RCAN1 (11760418_a_at) / RFU FAM167A (11723789_a_at) / Fold change /veh FAM167A (11723789_a_at) / RFU FAM26E (11764081_at) / Fold change /veh FAM26E (11764081_at) / RFU ISYNA1 (11749810_s_at) / Fold change /veh ISYNA1 (11749810_s_at) / RFU ACY1 (11761880_at) / Fold change /veh ACY1 (11761880_at) / RFU 11764098_at / Fold change /veh 11764098_at / RFU SAMD14 (11745864_x_at) / Fold change /veh SAMD14 (11745864_x_at) / RFU NPB (11741838_a_at) / Fold change /veh NPB (11741838_a_at) / RFU TMPRSS6 (11731388_a_at) / Fold change /veh TMPRSS6 (11731388_a_at) / RFU KRTAP10-2 (11738614_at) / Fold change /veh KRTAP10-2 (11738614_at) / RFU ARHGAP8 /// PRR5-ARHGAP8 (11727945_x_at) / Fold change /veh ARHGAP8 /// PRR5-ARHGAP8 (11727945_x_at) / RFU KRTAP5-7 /// NADSYN1 (11734609_at) / Fold change /veh KRTAP5-7 /// NADSYN1 (11734609_at) / RFU RASL12 (11751679_a_at) / Fold change /veh RASL12 (11751679_a_at) / RFU CDKN2B (11736163_a_at) / Fold change /veh CDKN2B (11736163_a_at) / RFU PRF1 (11729649_at) / Fold change /veh PRF1 (11729649_at) / RFU, ZNF638 /// ZNF638-IT1 / Fold change vs veh, ZNF638 /// ZNF638-IT1 / RFU, PANK3 / Fold change vs veh, PANK3 / RFU, SH3YL1 / Fold change vs veh, SH3YL1 / RFU, ZEB2 / Fold change vs veh, ZEB2 / RFU, NRIP1 / Fold change vs veh, NRIP1 / RFU, PTTG1IP / Fold change vs veh, PTTG1IP / RFU, CAPN2 / Fold change vs veh, CAPN2 / RFU, MED14 / Fold change vs veh, MED14 / RFU, SNORA58 / Fold change vs veh, SNORA58 / RFU, C1orf63 / Fold change vs veh, C1orf63 / RFU, LRRFIP1 / Fold change vs veh, LRRFIP1 / RFU, NDUFAF7 / Fold change vs veh, NDUFAF7 / RFU, SLC12A2 / Fold change vs veh, SLC12A2 / RFU, IBTK / Fold change vs veh, IBTK / RFU, ESF1 / Fold change vs veh, ESF1 / Fold change vs veh, TMEM50B / RFU, TAOK1 / Fold change vs veh, TAOK1 / RFU, ACBD3 / Fold change vs veh, ACBD3 / RFU, TMA16 / Fold change vs veh, TMA16 / RFU, RWDD3 / Fold change vs veh, RWDD3 / RFU, BCAT1 / Fold change vs veh, BCAT1 / RFU, EDEM3 / Fold change vs veh, EDEM3 / RFU, TMEM33 / Fold change vs veh, TMEM33 / RFU, WDR75 / Fold change vs veh, WDR75 / RFU, AHCTF1 / Fold change vs veh, AHCTF1 / RFU, TFRC / Fold change vs veh, TFRC / RFU, ZDHHC17 / Fold change vs veh, ZDHHC17 / RFU, NOM1 / Fold change vs veh, NOM1 / RFU, ARL8B / Fold change vs veh, ARL8B / RFU, ZBTB11 / Fold change vs veh, ZBTB11 / RFU, TAMM41 / Fold change vs veh, TAMM41 / RFU, KIAA1704 /// LOC100996395 / Fold change vs veh, KIAA1704 /// LOC100996395 / RFU, ING1 / Fold change vs veh, ING1 / RFU, TRMT61B / Fold change vs veh, TRMT61B / RFU, FUBP3 / Fold change vs veh, FUBP3 / RFU, TP53 / Fold change vs veh, TP53 / RFU, TNKS2 / Fold change vs veh, TNKS2 / RFU, ZFP14 / Fold change vs veh, ZFP14 / RFU, ACTR2 / Fold change vs veh, ACTR2 / RFU, PPP3R1 / Fold change vs veh, PPP3R1 / RFU, PIK3R1 / Fold change vs veh, PIK3R1 / RFU, HNRNPA1 / Fold change vs veh, HNRNPA1 / RFU, RNF170 / Fold change vs veh, RNF170 / RFU, ZNF28 / Fold change vs veh, ZNF28 / RFU, RNGTT / Fold change vs veh, RNGTT / RFU, OGT / Fold change vs veh, OGT / RFU, BRD1 / Fold change vs veh, BRD1 / RFU, MARS / Fold change vs veh, MARS / RFU, ZNF655 / Fold change vs veh, ZNF655 / RFU, FAHD1 / Fold change vs veh, FAHD1 / RFU, BDP1 / Fold change vs veh, BDP1 / RFU, LRRCC1 / Fold change vs veh, LRRCC1 / RFU, ARID1A / Fold change vs veh, ARID1A / RFU, ZNF146 / Fold change vs veh, ZNF146 / RFU, ZNF330 / Fold change vs veh, ZNF330 / RFU, GPN3 / Fold change vs veh, GPN3 / RFU, C9orf123 / Fold change vs veh, C9orf123 / RFU, N4BP2L2 / Fold change vs veh, N4BP2L2 / RFU, ARFIP1 / Fold change vs veh, ARFIP1 / RFU, FAM179B / Fold change vs veh, FAM179B / RFU, BCL10 / Fold change vs veh, BCL10 / RFU, UHRF1BP1L / Fold change vs veh, UHRF1BP1L / RFU, BET1 / Fold change vs veh, BET1 / RFU, CNOT2 / Fold change vs veh, CNOT2 / RFU, ZNF268 / Fold change vs veh, ZNF268 / Fold change vs veh, ZNF507 / RFU, DGCR2 / Fold change vs veh, DGCR2 / RFU, WDSUB1 / Fold change vs veh, WDSUB1 / Fold change vs veh, HSP90B1 /// MIR3652 / RFU, ADSS / Fold change vs veh, ADSS / RFU, GK / Fold change vs veh, GK / RFU, ZNF148 / Fold change vs veh, ZNF148 / RFU, TAF9 / Fold change vs veh, TAF9 / RFU, SLC1A5 / Fold change vs veh, SLC1A5 / RFU, SLMO2 / Fold change vs veh, SLMO2 / RFU, ABCC4 / Fold change vs veh, ABCC4 / RFU, LOC101060439 /// RAP1B / Fold change vs veh, LOC101060439 /// RAP1B / RFU, RFX7 / Fold change vs veh, RFX7 / RFU, GTPBP10 / Fold change vs veh, GTPBP10 / RFU, CNEP1R1 / Fold change vs veh, CNEP1R1 / RFU, BIVM-ERCC5 /// ERCC5 / Fold change vs veh, BIVM-ERCC5 /// ERCC5 / RFU, ILF3 / Fold change vs veh, ILF3 / RFU 11762660_at / Fold change /veh 11762660_at / RFU VCAN (11757783_s_at) / Fold change /veh VCAN (11757783_s_at) / RFU DDX43 (11728927_at) / Fold change /veh DDX43 (11728927_at) / RFU KRT8 (11758188_x_at) / Fold change /veh KRT8 (11758188_x_at) / RFU NKD1 (11759106_at) / Fold change /veh NKD1 (11759106_at) / RFU SRD5A1 (11742802_a_at) / Fold change /veh SRD5A1 (11742802_a_at) / RFU TPSAB1 /// TPSB2 (11721975_s_at) / Fold change /veh TPSAB1 /// TPSB2 (11721975_s_at) / RFU GSTM3 (11746129_a_at) / Fold change /veh GSTM3 (11746129_a_at) / RFU IL23R (11737362_x_at) / Fold change /veh IL23R (11737362_x_at) / RFU TMEM51 (11727254_a_at) / Fold change /veh TMEM51 (11727254_a_at) / RFU PIWIL2 (11732686_x_at) / Fold change /veh PIWIL2 (11732686_x_at) / RFU ORM1 (11744905_x_at) / Fold change /veh ORM1 (11744905_x_at) / RFU CCDC152 (11743942_at) / Fold change /veh CCDC152 (11743942_at) / RFU ECM1 (11717891_a_at) / Fold change /veh ECM1 (11717891_a_at) / RFU IL23R (11748794_a_at) / Fold change /veh IL23R (11748794_a_at) / RFU TNFAIP8L3 (11732012_x_at) / Fold change /veh TNFAIP8L3 (11732012_x_at) / RFU MBOAT4 (11741988_at) / Fold change /veh MBOAT4 (11741988_at) / RFU 11764193_at / Fold change /veh 11764193_at / RFU TMEM53 (11763286_at) / Fold change /veh TMEM53 (11763286_at) / RFU MAGEB2 (11727129_at) / Fold change /veh MAGEB2 (11727129_at) / RFU TMEM200A (11744735_a_at) / Fold change /veh TMEM200A (11744735_a_at) / RFU CCDC152 (11751479_a_at) / Fold change /veh CCDC152 (11751479_a_at) / RFU FAM211A (11726209_a_at) / Fold change /veh FAM211A (11726209_a_at) / RFU RGS16 (11746705_a_at) / Fold change /veh RGS16 (11746705_a_at) / RFU VCAN (11755009_s_at) / Fold change /veh VCAN (11755009_s_at) / RFU RHOB (11743442_s_at) / Fold change /veh RHOB (11743442_s_at) / RFU RGS16 (11720943_a_at) / Fold change /veh RGS16 (11720943_a_at) / RFU RGS16 (11720944_at) / Fold change /veh RGS16 (11720944_at) / RFU, VPS4B / Fold change vs veh, VPS4B / RFU, CREB1 / Fold change vs veh, CREB1 / RFU, DNAJC13 / Fold change vs veh, DNAJC13 / RFU, GNAQ / Fold change vs veh, GNAQ / RFU, CDK5R1 / Fold change vs veh, CDK5R1 / RFU, ZRANB3 / Fold change vs veh, ZRANB3 / RFU, CUL4A / Fold change vs veh, CUL4A / RFU, CCNY / Fold change vs veh, CCNY / RFU, UFL1 / Fold change vs veh, UFL1 / RFU, COG3 / Fold change vs veh, COG3 / RFU, DIAPH2 / Fold change vs veh, DIAPH2 / RFU, SKA2 / Fold change vs veh, SKA2 / RFU, AFF3 / Fold change vs veh, AFF3 / RFU, LMF1 / Fold change vs veh, LMF1 / RFU, IPO11 / Fold change vs veh, IPO11 / RFU, DFFB / Fold change vs veh, DFFB / RFU, FOXP1 / Fold change vs veh, FOXP1 / RFU, CARD8 / Fold change vs veh, CARD8 / RFU, STRN3 / Fold change vs veh, STRN3 / RFU, ADK / Fold change vs veh, ADK / RFU, RASSF2 / Fold change vs veh, RASSF2 / RFU, WIPF1 / Fold change vs veh, WIPF1 / RFU, LARP1B / Fold change vs veh, LARP1B / RFU, RASA1 / Fold change vs veh, RASA1 / RFU, RB1 / Fold change vs veh, RB1 / RFU, PPFIA1 / Fold change vs veh, PPFIA1 / RFU, MAT2A / Fold change vs veh, MAT2A / RFU, CCT5 / Fold change vs veh, CCT5 / RFU, WDR92 / Fold change vs veh, WDR92 / RFU, CUX1 / Fold change vs veh, CUX1 / RFU, TTC7A / Fold change vs veh, TTC7A / RFU, TMEM135 / Fold change vs veh, TMEM135 / RFU, DEPTOR / Fold change vs veh, DEPTOR / RFU, CPM / Fold change vs veh, CPM / RFU, DNAJB6 / Fold change vs veh, DNAJB6 / RFU, CACNA2D3 / Fold change vs veh, CACNA2D3 / RFU, DTX4 / Fold change vs veh, DTX4 / RFU, TFCP2 / Fold change vs veh, TFCP2 / RFU, GMCL1 /// GMCL1P1 / Fold change vs veh, GMCL1 /// GMCL1P1 / RFU, AEBP2 / Fold change vs veh, AEBP2 / RFU, SNHG1 /// SNORD22 /// SNORD25 /// SNORD26 /// SNORD27 /// SNORD28 /// SNORD29 /// SNORD31 / Fold change vs veh, SNHG1 /// SNORD22 /// SNORD25 /// SNORD26 /// SNORD27 /// SNORD28 /// SNORD29 /// SNORD31 / Fold change (Aza/veh), C12orf56 (ProbeSet 11735607_a_at) / Fold change (ACY-1035/veh), C12orf56 (ProbeSet 11735607_a_at) / Fold change (Aza/veh), FGFR1OP (ProbeSet 11751329_s_at) / Fold change (ACY-1035/veh), FGFR1OP (ProbeSet 11751329_s_at) / Fold change (Aza/veh), VPS36 (ProbeSet 11739960_a_at) / Fold change (ACY-1035/veh), VPS36 (ProbeSet 11739960_a_at) / RFU SYPL1 (11715823_x_at) / Fold change /veh SYPL1 (11715823_x_at) / RFU IGFBP7 (11715501_s_at) / Fold change /veh IGFBP7 (11715501_s_at) / RFU REEP3 (11722064_at) / Fold change /veh REEP3 (11722064_at) / RFU IGLL1 (11728026_x_at) / Fold change /veh IGLL1 (11728026_x_at): dose or concentration left out as unconfirmed
Conditions: MV-4-11 cells, 48 hours

Structure (SMILES): Nc1ccc(-c2cccs2)cc1NC(=O)c1ccc2c(c1)cc(C1CC1)n2CCN1CCOCC1 [ACY-1035]
- Fold change /veh LINC00158 (11744669_a_at): 1.11
